Test results reported in ChEMBL document CHEMBL1201862, “PubChem BioAssay data set” (2004).
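Five compound concentrations were applied to cells in 96-well plates for 48 hours; endpoints were derived by simple linear interpolation of the resulting dose-response curve. GI50 is the concentration that inhibits growth by half.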 Activity calls are given as the source filed them. Cut-off read from the data, not from the text of the source: active = GI50 up to about 1.1 µM and inactive = higher.

What was measured:
Assay in all cases: inhibition of tumour cell growth, NCI panel, 48 h
SNB-19 = test system: SNB-19
IGROV-1 = test system: IGROV-1
OVCAR-3 = test system: OVCAR-3
HCC 2998 = test system: HCC 2998
DLD-1 = test system: DLD-1
OVCAR-4 = test system: OVCAR-4
CCRF-CEM = test system: CCRF-CEM
SK-MEL-28 = test system: SK-MEL-28
NCI-H522 = test system: NCI-H522
A549 = test system: A549
UACC-62 = test system: UACC-62
KM-20L2 = test system: KM-20L2
HOP-62 = test system: HOP-62
DMS-273 = test system: DMS-273
DMS-114 = test system: DMS-114
SF-268 = test system: SF-268
RPMI-8226 = test system: RPMI-8226
U-251 = test system: U-251
EKVX = test system: EKVX
ACHN = test system: ACHN

How did the GI50 (SNB-19) turn out when N=C(N)Nc1ncccc1[N+](=O)[O-] was run?
The GI50 was > 100 µM (inactive).

And the GI50 (IGROV-1)?
Its GI50 is > 93.8 µM (inactive).

What about the GI50 (OVCAR-3) of the same compound?
The GI50 was 25.1 µM (inactive).

And the GI50 (HCC 2998)?
Its GI50 is 55.2 µM (inactive).

What about the GI50 (DLD-1) of the same compound?
Its GI50 is > 100 µM (inactive).

And the GI50 (OVCAR-4)?
Its GI50 is > 100 µM (inactive).

And the GI50 (CCRF-CEM)?
The GI50 was > 100 µM (inactive).

What about the GI50 (SK-MEL-28) of the same compound?
The GI50 was > 100 µM (inactive).

And the GI50 (NCI-H522)?
The GI50 was > 100 µM (inactive).

What about the GI50 (A549) of the same compound?
Its GI50 is > 100 µM (inactive).

And the GI50 (UACC-62)?
The GI50 was > 100 µM (inactive).

What about the GI50 (KM-20L2) of the same compound?
Its GI50 is 25.4 µM (inactive).

And the GI50 (HOP-62)?
Its GI50 is > 100 µM (inactive).

What about the GI50 (DMS-273) of the same compound?
The GI50 was > 100 µM (inactive).

And the GI50 (DMS-114)?
The GI50 was 15.8 µM (inactive).

And the GI50 (SF-268)?
Its GI50 is 74.6 µM (inactive).

And the GI50 (RPMI-8226)?
The GI50 was > 95.1 µM (inactive).

What about the GI50 (U-251) of the same compound?
The GI50 was > 31.6 µM (inactive).

Which results are given for Cc1c2c(cc3c1[nH]c1ccccc13)C=NCC2?
GI50 (SNB-19): 18.2 µM (inactive); GI50 (IGROV-1): 16.2 µM (inactive); GI50 (OVCAR-3): 1.26 µM (inactive); GI50 (HCC 2998): 21.5 µM (inactive); GI50 (DLD-1): 4.2 µM (inactive); GI50 (EKVX): 33 µM (inactive); GI50 (OVCAR-4): 16.6 µM (inactive); GI50 (CCRF-CEM): 7.48 µM (inactive); GI50 (SK-MEL-28): 7.36 µM (inactive); GI50 (NCI-H522): 12.9 µM (inactive); GI50 (A549): 15.2 µM (inactive); GI50 (UACC-62): 8.49 µM (inactive); GI50 (KM-20L2): 9.51 µM (inactive); GI50 (HOP-62): 31.8 µM (inactive); GI50 (DMS-273): 12.6 µM (inactive); GI50 (DMS-114): 6.9 µM (inactive); GI50 (SF-268): 16.8 µM (inactive); GI50 (RPMI-8226): 10.5 µM (inactive); GI50 (U-251): 13.4 µM (inactive)

For COc1ccc(OC)c(NC(=O)C(=O)C(C(=O)c2ccccc2F)C2OC(=O)c3ccccc32)c1 (centres undefined), which GI50 (SNB-19) is on record?
The GI50 was 36 µM (inactive).

And the GI50 (IGROV-1)?
The GI50 was 89.3 µM (inactive).

And the GI50 (HCC 2998)?
The GI50 was 44.8 µM (inactive).

What about the GI50 (ACHN) of the same compound?
Its GI50 is 82.6 µM (inactive).

And the GI50 (DLD-1)?
Its GI50 is 42 µM (inactive).

And the GI50 (EKVX)?
Its GI50 is 62.2 µM (inactive).

What about the GI50 (OVCAR-4) of the same compound?
Its GI50 is 66.8 µM (inactive).

What about the GI50 (CCRF-CEM) of the same compound?
Its GI50 is 21.8 µM (inactive).

What about the GI50 (SK-MEL-28) of the same compound?
Its GI50 is 39.7 µM (inactive).

What about the GI50 (NCI-H522) of the same compound?
Its GI50 is 23.5 µM (inactive).

What about the GI50 (A549) of the same compound?
The GI50 was 71.1 µM (inactive).

What about the GI50 (UACC-62) of the same compound?
The GI50 was 36.4 µM (inactive).

What about the GI50 (KM-20L2) of the same compound?
The GI50 was 51.9 µM (inactive).

What about the GI50 (HOP-62) of the same compound?
The GI50 was 50.2 µM (inactive).

And the GI50 (DMS-273)?
The GI50 was 30.6 µM (inactive).

And the GI50 (DMS-114)?
Its GI50 is 20.8 µM (inactive).

And the GI50 (SF-268)?
Its GI50 is 22.8 µM (inactive).

And the GI50 (RPMI-8226)?
The GI50 was 32.4 µM (inactive).

And the GI50 (U-251)?
The GI50 was 19.1 µM (inactive).

Which GI50 (SNB-19) does the source give for CCCCOc1ccc(OCCCCCCCCCC[N+](C)(C)C)cc1 here?
The GI50 was 7.6 µM (inactive).

And the GI50 (IGROV-1)?
Its GI50 is 1.37 µM (inactive).

And the GI50 (OVCAR-3)?
The GI50 was 2.1 µM (inactive).

And the GI50 (HCC 2998)?
The GI50 was 1.95 µM (inactive).

And the GI50 (DLD-1)?
Its GI50 is 6.38 µM (inactive).

And the GI50 (EKVX)?
The GI50 was 15.5 µM (inactive).

What about the GI50 (OVCAR-4) of the same compound?
Its GI50 is 2.86 µM (inactive).

And the GI50 (CCRF-CEM)?
The GI50 was 1.28 µM (inactive).

What about the GI50 (SK-MEL-28) of the same compound?
Its GI50 is 5.58 µM (inactive).

And the GI50 (NCI-H522)?
Its GI50 is 1.7 µM (inactive).

What about the GI50 (A549) of the same compound?
The GI50 was 3.55 µM (inactive).

And the GI50 (UACC-62)?
The GI50 was 4.06 µM (inactive).

What about the GI50 (KM-20L2) of the same compound?
The GI50 was 0.682 µM (active).

What about the GI50 (HOP-62) of the same compound?
The GI50 was 3.62 µM (inactive).

And the GI50 (DMS-273)?
The GI50 was 1.51 µM (inactive).

And the GI50 (DMS-114)?
Its GI50 is 2.05 µM (inactive).

And the GI50 (SF-268)?
The GI50 was 3.13 µM (inactive).

And the GI50 (RPMI-8226)?
Its GI50 is 0.481 µM (active).

And the GI50 (U-251)?
The GI50 was 1.91 µM (inactive).

CC1(C)C(O)C[C@@H](O)[C@@]2(C)C1CC[C@]1(C)C2C[C@@H](O)[C@@H]2C([C@@]3(C)CC[C@@H](C(C)(C)O)O3)CCC21C (some centres undefined) was tested. Which GI50 (SNB-19) did it give?
Its GI50 is 14.2 µM (inactive).

What about the GI50 (IGROV-1) of the same compound?
Its GI50 is 14.5 µM (inactive).

What about the GI50 (OVCAR-3) of the same compound?
Its GI50 is 15.7 µM (inactive).

And the GI50 (HCC 2998)?
Its GI50 is 17.5 µM (inactive).

What about the GI50 (ACHN) of the same compound?
Its GI50 is 19.1 µM (inactive).

And the GI50 (DLD-1)?
Its GI50 is 16.5 µM (inactive).

What about the GI50 (EKVX) of the same compound?
The GI50 was 24.9 µM (inactive).

And the GI50 (OVCAR-4)?
The GI50 was 22.4 µM (inactive).

What about the GI50 (CCRF-CEM) of the same compound?
The GI50 was 17.8 µM (inactive).

What about the GI50 (SK-MEL-28) of the same compound?
Its GI50 is 13.8 µM (inactive).

What about the GI50 (NCI-H522) of the same compound?
The GI50 was 14.6 µM (inactive).

And the GI50 (A549)?
The GI50 was 18.9 µM (inactive).

And the GI50 (UACC-62)?
The GI50 was 9.93 µM (inactive).

What about the GI50 (KM-20L2) of the same compound?
The GI50 was 17.5 µM (inactive).

What about the GI50 (HOP-62) of the same compound?
The GI50 was 16.6 µM (inactive).

And the GI50 (DMS-273)?
Its GI50 is 14.6 µM (inactive).

And the GI50 (DMS-114)?
The GI50 was 15.5 µM (inactive).

And the GI50 (SF-268)?
The GI50 was 17.2 µM (inactive).

What about the GI50 (RPMI-8226) of the same compound?
Its GI50 is 16.7 µM (inactive).

What about the GI50 (U-251) of the same compound?
Its GI50 is 12.9 µM (inactive).

Which results are given for CSc1nc(NC2OCC(O)C(O)C2O)c(N)c(=O)[nH]1 (centres undefined)?
GI50 (SNB-19): > 100 µM (inactive); GI50 (IGROV-1): > 100 µM (inactive); GI50 (OVCAR-3): > 100 µM (inactive); GI50 (HCC 2998): > 100 µM (inactive); GI50 (DLD-1): > 100 µM (inactive); GI50 (EKVX): > 100 µM (inactive); GI50 (OVCAR-4): > 100 µM (inactive); GI50 (CCRF-CEM): > 100 µM (inactive); GI50 (SK-MEL-28): > 100 µM (inactive); GI50 (NCI-H522): > 100 µM (inactive); GI50 (A549): > 100 µM (inactive); GI50 (UACC-62): > 100 µM (inactive); GI50 (KM-20L2): > 100 µM (inactive); GI50 (HOP-62): > 100 µM (inactive); GI50 (DMS-273): > 100 µM (inactive); GI50 (DMS-114): > 100 µM (inactive); GI50 (SF-268): > 100 µM (inactive); GI50 (RPMI-8226): > 100 µM (inactive); GI50 (U-251): > 100 µM (inactive)
